The assay has as its target T1, AvSBD-UKD (sugar-binding domain and split Ig-like domain of the A. veronii RTX adhesin, WP_103422706.1).
T1 construct: AvSBD-UKD, 40 kDa ortholog construct (WP_103422706.1), spanning SBD and UKD
Description: isothermal titration calorimetry ([…]°C, one-site model, N = […]). Also on record: species or system Aeromonas veronii.

For `C[C@@H]1OC(O)[C@@H](O)[C@H](O)[C@@H]1O` (stereo partly drawn) [L-fucose], the Kd was 15 µM.

(Values after paper PMC10865825, “Sugar-binding and split domain combinations in repeats-in-toxin adhesins from Vibrio cholerae and Aeromonas veronii mediate cell-surface recognition and hemolytic activities” (mBio, 2024).)
